From US20220213060A1, “Crystal Form of Quinazolinone Compound and Preparation Method Therefor” (Luoxin Healthcare Science and Technology Development …, priority 2019, published 2022)
One block for each molecule: values may come before it.

Legend:
MCF7 cell line = assay: In vitro cell activity test: ELISA of Akt phosphorylation in MCF7 cells; assay type: cell-based; details: Homo sapiens; inhibition of Akt phosphorylation, insulin-stimulated MCF7 cells
Description: ELISA method was used to measure the inhibition level of the compounds to be tested on the phosphorylation of Akt, which is the downstream protein of PI3K in signal pathway in MCF7 cell line to reflect the cell activity of the compounds.
Cell culture medium: complete cell culture medium (RPMI 1640+10% serum+1% L-glutamine+1% double antibody)
Serum-free medium (without serum, RPMI 1640+1% L-glutamine+1% double antibody)
Specific operation steps were as follows:
(1) MCF7 cells (ATCC® HTB-22™) were inoculated into a 96-well plate with 100 μL (2.5 10^4 cells per well) of complete cell culture medium, and incubated at 37° C. and 5% CO2 for 24 hours.
(2) The complete cell culture medium was replaced with 100 μL serum-free medium, and incubated overnight in starvation
(3) The compound (the initial concentration of the compound was 1 mM, which was subjected to a three-fold dilution in 10 concentrations. Then, each concentration of the compound was diluted 100-fold with serum-free medium), and 25 μL of the diluted compound was added to the well plate containing cells.
(4) The cells were incubated at 37° C. and 5% CO2 for 2 h
(5) 10 μg/mL insulin (Sigma #I9278-5 mL) was used to stimulate the cells in the well plate, incubated for 30 min, and then centrifuged at 1000 rpm for 5 min at room temperature.
(6) 250 μL 1× balanced salt solution (Invitrogen, #14065-056, 4° C., containing 1 mM/L Na3VO4) was added to each well to wash the cells once
(7) 100 μL of lysis buffer (tris(hydroxymethyl)aminomethane hydrochloride, Invitrogen, #15567-1000 ml) was added to each well and shaken at 4° C. for 60 min, and then centrifuged at 4000 rpm for 10 min at 4° C.
(8) The subsequent steps were performed according to the ELISA kit (TGR BioSciences #EKT002) instructions.

PI3Kδ = molecular target: T1, PI3Kδ (Homo sapiens, UniProt O00329); assay: In vitro enzymatic activity test (ADP-Glo lipid kinase), PI3Kδ; assay type: biochemical; details: Table 17, in vitro screening
T1 construct: purchased Millipore 14-604-K
Experimental: (§1) The lipid kinase reaction was carried out in a suitable substrate and under ATP conditions, then the activity of the kinase was detected by ADP-Glo™ kit in two steps. Step 1: the kinase reaction was terminated, in which the residual ATP was completely removed and only ADP was retained; step 2: kinase detection reagent was added to convert ADP to ATP, accompanied by fluorescein/luciferase reaction. Finally, the fluorescence value output was converted into kinase activity.
(§2) Experimental Materials and Equipment:
(§3) 2) Kit: ADP-Glo™ lipid kinase and PIP2:3PS kit (Promega #V1792)
(§4) The reagent kit contains: 1 mM PIP2:3PS, 10× lipid dilution buffer, 1 M magnesium chloride, 10 mM ATP, 10 mM ADP, ADP-Glo reagent, detection buffer and detection substrate.
(§5) 3) Reaction plate: OptiPlate-384, white and transparent (PerkinElmer #6007299)
(§6) 1) 10× reaction buffer: 500 mM HEPES, pH 7.5, 500 mM NaCl, […]; BSA: 10% stock solution, self-made
(§7) 2) Final test system conditions: 1× reaction system: 50 mM of HEPES, 50 mM of NaCl, 3 mM of MgCl2, 0.01% BSA (freshly prepared on the day of experiment), 1% DMSO (v/v)+/−compound
(§8) 3) Reaction system: 3 μL of mixture of enzyme and substrate (1:1)+2 μL of ATP/MgCl2 mixture+5 μL of ADP-Glo reagent+10 μL of detection reagent.
(§9) The specific experimental operations were as follows: […]
(§10) (16) Fluorescence values were measured on the Envision instrument.

PI3Kα = molecular target: T2, PI3Kα (Homo sapiens, UniProt P42336); assay: In vitro enzymatic activity test (ADP-Glo lipid kinase), PI3Kα wild type; assay type: biochemical; details: Table 17, in vitro screening; read-out: PI3Kα IC50
T2 construct: purchased Millipore 14-602-K
Experimental: as §1, §2, §3, §4, §5, §6, §7, §8, §9, §10

PI3Kγ = molecular target: T3, PI3Kγ (Homo sapiens, UniProt P48736); assay: In vitro enzymatic activity test (ADP-Glo lipid kinase), PI3Kγ; assay type: biochemical; details: Table 17, in vitro screening
T3 construct: purchased Millipore 14-558-K
Experimental: as §1, §2, §3, §4, §5, §6, §7, §8, §9, §10

PI3Kβ = molecular target: T4, PI3Kβ (Homo sapiens, UniProt P42338); assay: In vitro enzymatic activity test (ADP-Glo lipid kinase), PI3Kβ; assay type: biochemical; details: Table 17, in vitro screening
T4 construct: purchased Promega V1751
Experimental: as §1, §2, §3, §4, §5, §6, §7, §8, §9, §10

[1] = Beagle dog absorption test (pharmacokinetics); assay type: in vivo, Beagle dogs; details: male and female Beagle dogs, oral, 0.3 mg/kg, single
Experimental: Beagle dogs were given the crystal form A of the compound represented by formula (I) by single or multiple oral administration and single intravenous injection respectively, with 6 dogs in each group, half male and half female. The single oral doses were 0.3, land 3 mg/kg respectively; the multiple doses were 1 mg/kg, once a day for 7 consecutive days; the single intravenous dose was 0.3 mg/kg. According to the drug plasma concentration-time curve, the pharmacokinetic parameters were calculated, the results are shown in Table 15. The vehicle for drug preparation in group 1 was 5% HP-beta-CD, 5% solutol, pH=8 aqueous solution, the vehicles for groups 2, 3, 4 were 0.5% MC, 0.2% Tween80 aqueous solution.

[2] = Hygroscopicity by dynamic vapor sorption (DVS); assay type: physicochemical; details: 25° C. and 80% RH
Experimental: 1.4 Dynamic Vapor Sorption (DVS) Method of the Present Disclosure
Instrument model: SMS DVS Advantage dynamic vapor sorption instrument
Detection conditions: 10-20 mg of sample was placed in a DVS sample tray for testing.
Detailed DVS parameters were as follows:
Equilibrium: dm/dt=0.01%/min: (shortest: 10 min, longest: 180 min)
Drying: drying at 0% RH for 120 min
RH (%) test gradient: 10%
RH (%) test gradient range: 0%-90%-0%
Hygroscopicity evaluation is classified as follows:
20 mg of the crystal form A of the compound represented by formula (I) was placed in the DVS sample tray for testing.

[3] = system: HR+/HER2+ human breast cancer BT-474 (PIK3CA amplified); assay: In vivo pharmacodynamic study, BT-474 nude mouse subcutaneous xenograft tumor model; set-up: species or system BALB/c nude mice
Experimental: The phenotype of human BT-474 breast cancer cells is HR+/HER2+, and it has PIK3CA amplification. This experiment evaluated the efficacy of the crystal form A of the compound represented by formula (I) in a human breast cancer xenograft tumor model, using BYL-719 as a reference.
Cell culture: Human breast cancer BT474 cells were cultured in vitro in a single layer, the culture condition was Hybri-Care medium with 10% fetal bovine serum and the cells were incubated in 5% CO2 at 37° C. Digestion and passage treatment with trypsin-EDTA was carried out twice a week. When the cell saturation was 80%-90% and the number reached the requirement, the cells were collected, counted and inoculated.
Animals: BALB/c nude mice, female, 6-8 weeks old, weighing 18-20 g. A total of 85 animals were required, and provided by Shanghai Bikai experimental animal Co., Ltd.
Tumor inoculation: Estrogen tablets (0.36 mg/tablet) were subcutaneously inoculated on the left back of each mouse, three days later, 0.2 mL (10×10^6 cells) of BT474 cells (with matrigel in a volume ratio of 1:1) were subcutaneously inoculated on the right back of each mouse, group administration was started when the average tumor volume reached 150 mm^3−200 mm^3.
Tumor-bearing mice in each administration group had good tolerance to the tested compounds.

[4] = 40 mg/kg, oral once a day for 20 days

T3 sequence (P48736 whole entry): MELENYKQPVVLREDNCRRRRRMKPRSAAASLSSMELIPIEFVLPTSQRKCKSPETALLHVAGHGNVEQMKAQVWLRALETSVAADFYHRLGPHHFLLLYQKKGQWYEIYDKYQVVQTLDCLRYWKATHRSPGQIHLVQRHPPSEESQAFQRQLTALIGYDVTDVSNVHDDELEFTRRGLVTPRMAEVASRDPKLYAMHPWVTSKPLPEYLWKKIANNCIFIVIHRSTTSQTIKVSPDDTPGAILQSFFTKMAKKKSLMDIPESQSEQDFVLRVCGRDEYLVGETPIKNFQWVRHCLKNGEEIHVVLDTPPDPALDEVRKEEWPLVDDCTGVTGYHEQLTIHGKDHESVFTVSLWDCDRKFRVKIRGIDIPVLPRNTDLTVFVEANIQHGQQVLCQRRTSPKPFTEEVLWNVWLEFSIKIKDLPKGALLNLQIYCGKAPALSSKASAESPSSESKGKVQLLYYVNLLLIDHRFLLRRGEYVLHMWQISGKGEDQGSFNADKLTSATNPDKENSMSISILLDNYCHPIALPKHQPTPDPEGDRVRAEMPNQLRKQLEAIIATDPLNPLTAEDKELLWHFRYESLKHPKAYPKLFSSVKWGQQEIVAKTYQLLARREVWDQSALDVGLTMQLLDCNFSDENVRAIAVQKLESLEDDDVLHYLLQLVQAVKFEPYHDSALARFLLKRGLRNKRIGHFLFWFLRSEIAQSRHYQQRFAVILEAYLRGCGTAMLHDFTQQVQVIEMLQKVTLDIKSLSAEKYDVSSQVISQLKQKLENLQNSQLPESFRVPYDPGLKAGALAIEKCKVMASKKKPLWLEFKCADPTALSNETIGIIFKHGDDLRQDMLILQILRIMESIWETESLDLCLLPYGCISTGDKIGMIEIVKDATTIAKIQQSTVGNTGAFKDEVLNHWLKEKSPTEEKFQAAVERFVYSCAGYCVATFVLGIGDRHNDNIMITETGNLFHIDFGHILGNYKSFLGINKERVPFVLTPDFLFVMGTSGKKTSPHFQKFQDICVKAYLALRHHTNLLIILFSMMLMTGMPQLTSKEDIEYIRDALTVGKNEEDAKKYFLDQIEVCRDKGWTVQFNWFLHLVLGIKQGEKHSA
T2 sequence (P42336 whole entry): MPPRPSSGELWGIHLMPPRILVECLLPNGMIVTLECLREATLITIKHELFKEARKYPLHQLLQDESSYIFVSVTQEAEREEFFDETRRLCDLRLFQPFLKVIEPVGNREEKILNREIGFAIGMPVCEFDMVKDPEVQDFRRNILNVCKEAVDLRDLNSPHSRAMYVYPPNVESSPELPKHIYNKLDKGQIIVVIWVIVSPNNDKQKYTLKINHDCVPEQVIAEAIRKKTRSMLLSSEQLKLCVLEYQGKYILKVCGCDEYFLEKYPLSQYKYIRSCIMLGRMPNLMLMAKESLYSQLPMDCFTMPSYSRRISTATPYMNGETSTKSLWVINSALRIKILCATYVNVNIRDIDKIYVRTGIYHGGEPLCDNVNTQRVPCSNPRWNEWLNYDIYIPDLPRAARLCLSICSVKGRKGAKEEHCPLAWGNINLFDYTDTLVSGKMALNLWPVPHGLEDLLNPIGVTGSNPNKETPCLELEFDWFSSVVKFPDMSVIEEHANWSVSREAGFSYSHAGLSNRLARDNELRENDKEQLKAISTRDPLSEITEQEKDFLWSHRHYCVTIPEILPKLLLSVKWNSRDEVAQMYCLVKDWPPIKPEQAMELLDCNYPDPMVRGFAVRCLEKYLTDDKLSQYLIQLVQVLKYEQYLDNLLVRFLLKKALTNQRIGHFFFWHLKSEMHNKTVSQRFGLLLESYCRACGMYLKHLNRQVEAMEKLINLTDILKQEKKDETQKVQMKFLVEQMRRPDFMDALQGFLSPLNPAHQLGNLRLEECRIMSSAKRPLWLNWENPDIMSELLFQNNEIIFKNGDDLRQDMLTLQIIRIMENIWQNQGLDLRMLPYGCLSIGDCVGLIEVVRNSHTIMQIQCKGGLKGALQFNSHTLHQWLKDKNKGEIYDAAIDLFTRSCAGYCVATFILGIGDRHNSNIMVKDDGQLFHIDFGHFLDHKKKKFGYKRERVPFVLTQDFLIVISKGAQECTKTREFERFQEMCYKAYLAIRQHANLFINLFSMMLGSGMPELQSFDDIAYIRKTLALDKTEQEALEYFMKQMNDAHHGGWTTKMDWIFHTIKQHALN
T2 sequence (P27986 whole entry partner): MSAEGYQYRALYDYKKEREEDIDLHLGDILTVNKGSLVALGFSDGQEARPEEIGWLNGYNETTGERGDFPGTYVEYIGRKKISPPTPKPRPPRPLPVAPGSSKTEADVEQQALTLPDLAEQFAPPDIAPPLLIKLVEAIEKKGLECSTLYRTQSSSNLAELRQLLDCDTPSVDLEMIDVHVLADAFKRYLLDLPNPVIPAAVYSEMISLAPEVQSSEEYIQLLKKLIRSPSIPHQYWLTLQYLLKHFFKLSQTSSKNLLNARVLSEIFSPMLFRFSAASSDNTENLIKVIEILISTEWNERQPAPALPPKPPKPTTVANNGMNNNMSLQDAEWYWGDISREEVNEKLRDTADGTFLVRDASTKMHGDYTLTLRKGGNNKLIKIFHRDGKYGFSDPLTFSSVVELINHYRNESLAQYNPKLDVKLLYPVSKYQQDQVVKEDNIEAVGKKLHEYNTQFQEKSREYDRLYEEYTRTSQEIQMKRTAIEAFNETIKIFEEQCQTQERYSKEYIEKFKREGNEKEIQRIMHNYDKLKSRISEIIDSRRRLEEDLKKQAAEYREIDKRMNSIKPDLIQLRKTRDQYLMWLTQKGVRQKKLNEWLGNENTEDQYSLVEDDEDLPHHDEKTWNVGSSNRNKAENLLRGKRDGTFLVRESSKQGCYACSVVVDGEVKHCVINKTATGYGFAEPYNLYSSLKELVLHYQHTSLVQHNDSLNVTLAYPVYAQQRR
T1 sequence (O00329 whole entry): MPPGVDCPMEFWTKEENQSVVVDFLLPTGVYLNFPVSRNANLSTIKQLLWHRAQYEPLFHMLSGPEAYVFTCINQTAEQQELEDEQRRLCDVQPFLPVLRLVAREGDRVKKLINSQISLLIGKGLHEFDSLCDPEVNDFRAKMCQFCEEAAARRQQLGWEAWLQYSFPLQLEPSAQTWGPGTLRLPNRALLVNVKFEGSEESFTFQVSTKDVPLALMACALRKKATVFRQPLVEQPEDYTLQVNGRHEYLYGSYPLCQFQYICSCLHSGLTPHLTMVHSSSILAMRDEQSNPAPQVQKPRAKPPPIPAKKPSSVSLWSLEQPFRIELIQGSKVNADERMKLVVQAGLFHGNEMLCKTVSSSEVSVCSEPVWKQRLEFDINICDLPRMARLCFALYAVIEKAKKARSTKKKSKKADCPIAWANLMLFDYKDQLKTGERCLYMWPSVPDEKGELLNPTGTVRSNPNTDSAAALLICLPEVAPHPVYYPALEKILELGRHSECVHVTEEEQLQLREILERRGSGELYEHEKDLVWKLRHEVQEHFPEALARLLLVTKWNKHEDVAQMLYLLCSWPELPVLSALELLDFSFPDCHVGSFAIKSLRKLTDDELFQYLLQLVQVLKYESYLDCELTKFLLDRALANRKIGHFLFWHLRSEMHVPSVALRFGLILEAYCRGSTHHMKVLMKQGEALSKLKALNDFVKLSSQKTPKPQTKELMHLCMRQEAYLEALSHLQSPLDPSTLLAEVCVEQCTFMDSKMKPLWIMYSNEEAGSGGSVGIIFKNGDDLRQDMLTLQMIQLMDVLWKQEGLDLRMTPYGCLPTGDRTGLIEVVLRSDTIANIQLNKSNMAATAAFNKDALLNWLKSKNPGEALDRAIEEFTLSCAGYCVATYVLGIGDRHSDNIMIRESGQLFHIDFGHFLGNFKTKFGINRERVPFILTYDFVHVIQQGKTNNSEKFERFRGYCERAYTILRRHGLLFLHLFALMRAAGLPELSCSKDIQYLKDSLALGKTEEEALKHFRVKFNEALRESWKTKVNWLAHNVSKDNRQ
T1 sequence (P27986 whole entry partner): as the sequence (P27986 whole entry partner) above
T4 sequence (P42338 whole entry): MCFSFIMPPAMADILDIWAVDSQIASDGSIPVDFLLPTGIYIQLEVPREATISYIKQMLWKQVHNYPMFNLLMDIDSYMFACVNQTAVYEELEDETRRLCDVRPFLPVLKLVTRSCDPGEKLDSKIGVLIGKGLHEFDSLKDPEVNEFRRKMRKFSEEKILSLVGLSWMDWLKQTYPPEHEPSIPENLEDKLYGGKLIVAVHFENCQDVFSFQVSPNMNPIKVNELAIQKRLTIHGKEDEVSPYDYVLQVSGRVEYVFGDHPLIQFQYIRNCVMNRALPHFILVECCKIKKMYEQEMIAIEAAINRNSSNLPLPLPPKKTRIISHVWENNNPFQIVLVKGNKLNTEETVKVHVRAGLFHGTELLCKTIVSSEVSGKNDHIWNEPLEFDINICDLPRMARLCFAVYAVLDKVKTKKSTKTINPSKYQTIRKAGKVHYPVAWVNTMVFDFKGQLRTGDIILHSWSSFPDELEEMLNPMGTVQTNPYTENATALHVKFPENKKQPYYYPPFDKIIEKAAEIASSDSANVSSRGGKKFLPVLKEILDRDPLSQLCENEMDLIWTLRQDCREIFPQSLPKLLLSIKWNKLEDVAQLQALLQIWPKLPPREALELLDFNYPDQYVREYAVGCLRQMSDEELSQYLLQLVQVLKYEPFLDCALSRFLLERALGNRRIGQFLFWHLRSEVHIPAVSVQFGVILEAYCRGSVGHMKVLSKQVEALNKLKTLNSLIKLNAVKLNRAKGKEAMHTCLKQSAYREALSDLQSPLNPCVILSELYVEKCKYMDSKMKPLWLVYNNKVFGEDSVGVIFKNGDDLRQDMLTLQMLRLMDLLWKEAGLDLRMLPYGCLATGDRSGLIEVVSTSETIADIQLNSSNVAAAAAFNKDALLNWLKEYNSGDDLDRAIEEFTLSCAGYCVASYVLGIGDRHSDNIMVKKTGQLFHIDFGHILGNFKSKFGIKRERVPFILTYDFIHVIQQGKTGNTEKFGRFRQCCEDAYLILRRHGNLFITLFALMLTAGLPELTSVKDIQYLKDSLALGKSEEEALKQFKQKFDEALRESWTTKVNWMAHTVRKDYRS
T4 sequence (P27986 whole entry partner): as the sequence (P27986 whole entry partner) above

IC50 (MCF7 cell line): > 1000 nM
Structure (SMILES): CCN(CC)CCn1cnc2ccc(-c3cnc(OC)c(NS(=O)(=O)c4ccc(F)cc4F)c3)cc2c1=O [R012 (A10)]

IC50 (PI3Kδ): 25.3 nM | IC50 (PI3Kα): 1.75 nM | IC50 (PI3Kγ): 19.8 nM | IC50 (PI3Kβ): 192 nM | IC50 (MCF7 cell line): 35.3 nM
Structure (SMILES): CNC(=O)[C@H](C)Cn1cnc2ccc(-c3cnc(OC)c(NS(=O)(=O)c4ccc(F)cc4F)c3)cc2c1=O [Compound represented by formula (I)]

Oral bioavailability (%) [1]: 71.2%
Structure (SMILES): CNC(=O)[C@H](C)Cn1cnc2ccc(-c3cnc(OC)c(NS(=O)(=O)c4ccc(F)cc4F)c3)cc2c1=O [listing 1 of 2 here]

Classification for hygroscopicity [2]: hygroscopic | ΔW, hygroscopical weight gain [2]: 2.332%
Structure (SMILES): CNC(=O)[C@H](C)Cn1cnc2ccc(-c3cnc(OC)c(NS(=O)(=O)c4ccc(F)cc4F)c3)cc2c1=O [listing 2 of 2 here]

Continued, molecule first:

Structure (SMILES): COc1ncc(-c2ccc3ncn(CCN(C)C)c(=O)c3c2)cc1NS(=O)(=O)c1ccc(F)cc1 [R011 (A2)]
IC50 (MCF7 cell line): 230 nM

Structure (SMILES): Cc1nc(NC(=O)N2CCC[C@H]2C(N)=O)sc1-c1ccnc(C(C)(C)C(F)(F)F)c1 [BYL-719, reference compound]
Anti-tumor effect (in words) ([3]; 40 mg/kg group): significant anti-tumor effects | T/C % [3, 4]: 29.39% | TGI % [3, 4]: 95.31%
